The values that follow come from EPA's ToxValDB 9.5 (doi:10.2903/j.efsa.2011.2159).

The subject of one data set is Apis mellifera. The note with it: acute; duration: 48 hours; oral; unspecified; mortality.
The next data set deals with Mus musculus. The note with it: acute; oral; mortality.
The next data set deals with Bibionidae. The note with it: chronic/long-term; duration: 28 days.
The next data set concerns Anas platyrhynchos. The note with it: mortality.
The next data set relates to Aphidius rhopalosiphi. The note with it: not reported; mortality.
In another data set the test system is Daphnia magna. The conditions noted are these: chronic/long-term; duration: 21 days; reproduction.
Another data set deals with Canidae. The note with it: chronic; duration: 1 years; oral; Dog Other; clinical signs.
For a further data set, the system named is Colinus virginianus. The note with it: mortality; for LD50: acute, oral.

The term NOAEL denotes the highest dose or exposure tested at which no adverse effect was seen.

In brackets after ≈: the same amount, converted by molar mass. Where only a bound is given, the exact number is not on record here.

Turning to `Cc1c(COC(=O)[C@@H]2[C@H](/C=C(\Cl)C(F)(F)F)C2(C)C)cccc1-c1ccccc1` [Bifenthrin], the LD50 is 0.1 µg/piece in the data set with Apis mellifera; 42.5 mg/kg with Mus musculus; over 2150 mg/kg in the data set with Anas platyrhynchos (acute, oral, unspecified); 569 mg/kg-day with Colinus virginianus (diet); 1800 mg/kg with Colinus virginianus. Also, the NOEC with Bibionidae amounted to 0.00032 mg/L; in the data set with Anas platyrhynchos (reproductive), 75 mg/kg; in the data set on Anas platyrhynchos (short-term, oral, feed), 312 mg/kg; in the data set on Daphnia magna, 9.5e-07 mg/L; with Tagia sp. (chronic/long-term, duration: 56 days, reproduction), 2.16 mg/kg; in the data set with Oncorhynchus mykiss (chronic/long-term, duration: 30 days, other) it was 1.2e-05 mg/L. In the data set on Colinus virginianus (reproduction developmental), this compound yielded an NOEC of 75 mg/kg-day. The compound further gave an LEL in the data set on Aphidius rhopalosiphi of 60 g/ha. Besides, the LC50 in the data set with Tagia sp. (acute, duration: 14 days, mortality) was over 16 mg/kg; in the data set on Oncorhynchus mykiss (acute, duration: 96 hours, mortality), 0.1 ng/mL (≈ 0.236 nM). Moreover, the NOAEL in the data set on Rattus norvegicus (developmental, development) is over 2 mg/kg-day; in the data set on Rattus norvegicus (reproduction developmental, reproduction) it was 3 mg/kg-day; in the data set with Rattus norvegicus (subchronic, duration: 90 days, oral, neurology), 2.9 mg/kg-day; in the data set with Canidae it was 1.5 mg/kg-day.
